Laboratory results as given in patent publication US6573296B2, “Therapeutic quassinoid preparations with antineoplastic, antiviral, and herbistatic activity” (priority 1997, dated 2003).

Columns and labels:
[1] = system: colon adenocarcinoma #38 [C38]; test: in vivo chemotherapy of SC transplanted tumor; set-up: species or system mice
Description: (§1) Mice. Inbreds mice used were C57B1/6, C3H/He, Balb/c, and DBA/2; hybrids were: B6D2F1 (C57B1/6 females×DBA/2 males), and CD2F1 (Balb/c females×DBA/2 males). All mice were obtained from the Frederick Cancer Research Facility, Frederick, Md.
(§2) Tumors were maintained in the mouse strain of origin and were transplanted into either an appropriate F1 hybrid or the strain of origin for therapy trials. All mice were over 17 g at the start of therapy; the range of individual body weights in each experiment was within 2 g. The mice were supplied food and water ad libitum.
(§3) Antitumor Agents. The compound easily dissolved in the diluent which consisted of 3% [V/V (100%-Pure)] Ethanol, 1% (V/V) polyoxyethylanesorbitan monopalmitate (P.O.E.40) and 96% sterile distilled water. The primary route of administration was intravenous (IV).
(§4) […] Chemotherapy. The methods of protocol design, tumor transplantation, drug treatment, endpoint determination, definition of terms, toxicity evaluation, data analysis, quantification of tumor cell kill, and the biologic significance of the drug treatment results with transplantable tumors have been presented. The following is a brief summary of those methods as they apply to the work described.
(§5) The animals necessary to begin an experiment were pooled, implanted bilaterally SC on day 0 with 30 to 60 mg tumor fragments using a 12 gauge trocar, and again pooled before randomization to the various treatment and control group. Chemotherapy was either started within 3 days after tumor implantation while the number of cells per mouse was relatively small (10^7 to 10^8 cells), or allowed to grow to palpation (about 3×10^8 cells) in a more advanced stage trial.
(§6) Tumors were measured with a caliper either once or twice weekly (as needed) until either tumors exceeded 1500 mg or cure was. assured. Tumor weights were estimated from two-dimensional measurements:
(§7) Tumor Weight (mg)=(a×b^2)/2, where a and b are the tumor length and width (mm) respectively.
(§8) Tumor growth delay. (T-C value), where T is the median time (in days) required for the treatment group tumors to reach a predetermined size, and C is the median time (in days) for the control group tumors to reach the same size. Tumor-free survivors were excluded from these calculations (cures were tabulated separately).
(§9) Calculation of tumor cell kill. For SC growing tumors, the log10 cell kill was calculated from the following formula: [formula]
(§10) Where T-C is the tumor growth delay (in days) as described above and Td is the tumor volume doubling time (in days), the latter estimated from the best fit straight line from a log-linear growth plot of the control-group tumors in exponential growth (500 to 1500 mg range). The conversion of the T-C values of log10 cell kill is possible because the Td for tumors regrowing post-treatment approximated the Td values of the tumors in untreated control mice.
(§11) Determination of activity by tumor growth inhibition (T/C value). Measurements were carried out simultaneously in both the treatment and control groups. When the control group tumors reached approximately 750-1500 mg in size (median of group), the median tumor weight of each group was determined (including zeros).

[2] = in vivo chemotherapy of SC transplanted tumor; set-up: species or system mice; details: mouse, in vivo; C38; IV; days: Glaucarubinone 3,5-10, Holacanthone 3-12, Glaucarubolone 3-6, Chaparrinone 3-9; read-out: MTD Total Dose
Description: as §1, §2, §3, §4, §5, §6, §7, §8, §9, §10, §11

Tomato plants = test: growth of plants in peat after treatment; type: in vivo
Procedure: Tomato plants about 3.5 cm high at the time of treatment were grown in peat in a flat of 1.5 inch diameter compartments and were treated with either aqueous simalikalactone (solution QD-1) or aqueous glaucarubolone (solution QD-2) containing 0.1% Triton X-100. The final volume/plant was 10 μ1 for the aqueous solution and 200 µl of the aqueous solution containing Triton X-100. […] With the aqueous treatment, plants also were inhibited but not as markedly as with detergent.

Sorghum (DeKalb 18) = test: growth of plants in soil after foliar application; type: in vivo; details: twenty days after treatment, 10 μl of 1:1000/half pot; control plants 16 cm
Procedure: To evaluate the growth phenotype of a set of plants, a 1 mg concentration of 100 Mm (solution QD-2). This solution was diluted serially with water with or without Triton X-100, ethanol or DMSO and used directly for measurement of effects on seed germination or applied using a microliter syringe to foliage to evaluate growth effects on plants.
Sorghum (DeKalb 18) plants growing in soil were treated as for Arabadopsis thaliani above after 6 days of germination when the plants were about 5 cm high (as the leaf emerged from the coleoptile sheath). Growth was retarded. Twenty days after treatment, control plants were 16 cm high and treated plants were 12 cm high. The application rate was 10 µl of 1:1000/half pot=2.5×10^−3 oz/A.

[3] = system: HIV infected human MOLT-4 cells; test: differential killing of HIV infected cells; type: cell-based; details: FIGS. 8 and 9
[4] = system: leukemia and solid tumor cells; test: in vitro differential cytotoxicity, solid tumor versus leukemia; type: cell-based; details: solid tumor versus leukemia zones

CC1=CC(=O)C(O)C2(C)C1CC1OC(=O)C(O)C3C(C)C(O)C4(O)OCC13C42 (centres unmarked) [Glaucarubolone, glaucarubolone]
Cures ([1]; C38, IV at MTD, cured/total mice): 1/5 | in vivo activity against C38, in words ([1]; mouse, in vivo): therapeutic activity | MTD [2]: 151 mg/kg | effect on tomato plants, in words (Tomato plants; 1:1000 and 1:10,000 dilutions in detergent solution, 30 days after treatment): still inhibited | effect on tomato plants, in words (Tomato plants; 100 Mm diluted 1:100 in 0.1% Triton X-100): did not grow and eventually died | height of treated plants (Sorghum (DeKalb 18)): 12 cm | killing of HIV infected MOLT-4 cells compared to uninfected cells [3]: differentially killed at two log orders less | solid tumor selectivity in vitro [4]: demonstrated solid tumor selectivity
